From patent publication US12269902B2, “Peptide compounds and peptide conjugates for the treatment of cancer through receptor-mediated chemotherapy” (TRANSFERT PLUS, S.E.C., priority 2015, dated 2025)
pIC50: −log10 of the molar value. Non-standard residues stand in square brackets, D forms with d. Residues, ends and D or L forms follow the SMILES beside them. *: point of attachment. X1 = CC(=O)O[C@@]12CO[C@@H]1C[C@H](O)[C@@]1(C)C(=O)[C@H](O)C3=C(C)[C@@H](OC(=O)[C@H](OC(=O)CCC(=O)*)[C@@H](NC(=O)OC(C)(C)C)c4ccccc4)C[C@@](O)([C@@H](OC(=O)c4ccccc4)[C@H]21)C3(C)C; Nle = CCCC[C@H](N)C(=O)O

Tests used:
[1] = system: SK-MEL-28 skin cancer cells; experiment: [3H]-Thymidine incorporation cell proliferation assay, SK-MEL-28; type: cell-based; conditions: Homo sapiens; SK-MEL-28 (Skin); Table 4; 2 or 3 days
Method: (§1) The effect of the Docetaxel-Katana peptide conjugate on various cell line proliferations was evaluated and compared to unconjugated Docetaxel (Table 4). IC50 values obtained for the Docetaxel-Katana peptide conjugate were very similar to those of Docetaxel in the cancer cells tested.
(§2) The phytochemical Curcumin, unconjugated and conjugated, was also tested on cancer cell proliferation (FIG. 28). Breast cancer cells (MDA-MB231) were incubated with increasing concentrations of KBC106 or curcumin. After 72 hrs, thymidine incorporation assay was performed to assess the anti-proliferative properties of both molecules. IC50 values were extracted from the anti-proliferative curves. […] Proliferation assay was also performed using different types of cancer cells (ovarian, breast, skin and colorectal cancer cells). IC50 values were calculated from the anti-proliferation curves. In all cases, the Curcumin conjugate (KBC106) had stronger anti-proliferative activity (9-100 fold) than unconjugated Curcumin, as shown in Table 6 below.
(§3) Cancer cells were cultured in 96-well white plates (Perkin Elmer). They were synchronized for 24 hours in serum-deprived medium. After incubation of cells with unconjugated drugs (docetaxel, cabazitaxel, doxorubicin) or with drug-Katana peptide conjugates for 2 or 3 days, all media was aspirated and cells were pulse-labeled for 4 hours at 37° C./[…]/5% CO2 with media containing 2.5 μCi/mL [methyl-3H] thymidine (Perkin Elmer). Cells were washed, fixed, and dried before addition of scintillation fluid (Microscint 0, Perkin Elmer). After 24 hours, cell-associated tritium was quantified by counting on a plate reader (TopCount, Perkin Elmer). Incorporated [3H] thymidine was plotted for each drug concentration.

[2] = system: ES-2 ovarian cancer cells; experiment: [3H]-Thymidine incorporation cell proliferation assay, ES-2; type: cell-based; conditions: ES-2 (Ovary); Table 4; 2 or 3 days
Method: as §1, §2, §3

P-gp (MDR1) = P-gp (MDR1) (Homo sapiens, UniProt P08183); experiment: Drug accumulation in MDCK-MDR1 cells with or without Cyclosporin A; conditions: 50 nM, 1 hr, 37° C., CsA 10 μM
Sequence of P-gp (MDR1) (P08183 whole entry): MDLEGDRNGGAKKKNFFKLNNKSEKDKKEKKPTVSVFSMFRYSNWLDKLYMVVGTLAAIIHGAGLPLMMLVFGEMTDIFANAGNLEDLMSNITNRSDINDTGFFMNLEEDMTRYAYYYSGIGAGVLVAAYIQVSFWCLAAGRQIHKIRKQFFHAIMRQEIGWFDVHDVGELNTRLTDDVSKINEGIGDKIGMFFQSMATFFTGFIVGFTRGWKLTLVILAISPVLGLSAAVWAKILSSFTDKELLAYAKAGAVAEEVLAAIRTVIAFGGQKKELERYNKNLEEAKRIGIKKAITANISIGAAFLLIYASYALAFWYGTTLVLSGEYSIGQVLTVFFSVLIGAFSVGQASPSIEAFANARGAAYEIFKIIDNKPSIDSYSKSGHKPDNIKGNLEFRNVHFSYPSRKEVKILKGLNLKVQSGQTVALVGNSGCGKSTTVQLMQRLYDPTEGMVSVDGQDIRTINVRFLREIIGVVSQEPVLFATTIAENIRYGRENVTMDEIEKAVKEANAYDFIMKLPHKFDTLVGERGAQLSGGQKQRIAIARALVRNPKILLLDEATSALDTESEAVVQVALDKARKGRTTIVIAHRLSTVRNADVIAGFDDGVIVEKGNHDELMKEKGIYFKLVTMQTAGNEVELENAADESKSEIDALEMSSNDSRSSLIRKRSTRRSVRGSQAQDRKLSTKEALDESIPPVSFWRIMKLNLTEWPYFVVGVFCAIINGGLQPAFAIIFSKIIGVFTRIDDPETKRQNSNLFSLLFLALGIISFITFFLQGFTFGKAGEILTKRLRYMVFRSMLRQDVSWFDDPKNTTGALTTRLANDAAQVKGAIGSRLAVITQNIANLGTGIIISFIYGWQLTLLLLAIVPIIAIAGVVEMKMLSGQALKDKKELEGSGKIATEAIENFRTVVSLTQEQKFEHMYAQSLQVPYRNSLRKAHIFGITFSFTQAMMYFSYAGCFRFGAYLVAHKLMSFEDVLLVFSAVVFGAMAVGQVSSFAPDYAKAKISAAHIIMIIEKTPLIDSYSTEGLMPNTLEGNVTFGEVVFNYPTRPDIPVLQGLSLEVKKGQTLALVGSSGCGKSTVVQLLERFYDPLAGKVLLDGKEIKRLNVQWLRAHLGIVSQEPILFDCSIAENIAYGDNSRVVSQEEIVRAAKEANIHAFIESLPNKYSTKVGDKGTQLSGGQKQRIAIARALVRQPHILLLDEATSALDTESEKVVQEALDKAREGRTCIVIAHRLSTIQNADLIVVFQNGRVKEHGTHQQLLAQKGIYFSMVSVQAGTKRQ
Method: 6A. […] 6B. MDCK-MDR1 cells were incubated with 50 nM of either [^14C]-Doxorubicin or [^125I]-Katana peptide-Doxorubicin conjugate (KBB106) for 1 hr at 37° C. in the presence or absence of CsA (10 μM). After the incubation, cells were washed and radioactivity accumulated in cells was quantified. The results were expressed in terms of uptake fmol/mg of protein.
In order to determine whether the anticancer drug-Katana-peptide conjugates could also be P-gp substrates, MDCK-transfected cells with human MDR1 were used (MDCK-MDR1).
Cells were washed three times with PBS and preincubated for 30 min at 37° C. in culture medium without serum with or without the P-gp inhibitor Cyclosporin A (10 μM). Radiolabelled molecules (50 nM) were then added for 60 min. The cells were rapidly washed three times with ice-cold PBS and then lysed in 500 µL of 0.1 M NaOH. The amount of radiolabelled molecules retained in the cells was counted by β-scintillation counting (Packard model 1900 TR). An aliquot of cell lysate was used in parallel to determine cellular protein concentration.

A-375 skin cancer cells = experiment: [3H]-Thymidine incorporation cell proliferation assay, A-375; type: cell-based; conditions: Homo sapiens; A-375 (Skin); Table 4; 2 or 3 days
Method: as §1, §2, §3

[3] = system: MDA-MB231 breast cancer cells; experiment: MDA-MB231 luciferase breast subcutaneous tumors (Docetaxel, KBA106); type: in vivo, mice
Method: 27A. Mice were implanted in the flank with MDA-MB231 breast cancer cells expressing luciferase. Tumor growth by luminescence was visualized using an in vivo imaging system from Carestream. Mice were treated with vehicle, Docetaxel (15 mg/kg/week) or KBA106 (50 mg/kg/week). Initial luminescence intensity was subtracted. 27B. […] No value was available (N/A) for the mice treated with the vehicle since all mice were then sacrificed because the size of their tumors reached the endpoint limit. 27C. Tumor luminescence results were expressed in terms of percentage of progression on D74 post-treatment compared to initial tumor luminescence. In the Docetaxel group, the tumor luminescence increased by 100% whereas in the KBA106 treated group the luminescence decreased by 100%.
Residual tumor burden was assessed in Docetaxel and Docetaxel conjugate treated mice (FIG. 27). Mice were implanted in the flank with MDA-MB231 breast cancer cells expressing luciferase. Tumor growth by luminescence was visualized using an in vivo imaging system from Carestream. Mice were treated with vehicle, Docetaxel (15 mg/kg/week) or KBA106 (50 mg/kg/week).

[4] = free Docetaxel; Assessment report for Docetaxel Teva, European Medicines Agency; cited from earlier work
SKOV3 cancer cells = experiment: SKOV3 luciferase subcutaneous xenograft tumour model (Docetaxel, KBA-105); conditions: mice, Docetaxel 10 mg/kg/week, 3 treatments
Method: Mice were implanted in the flank with SKOV3 cancer cells. Tumor growth was monitored by luminescence using the Near Infrared imaging system from Carestream.
Results are expressed in terms of luminescence intensity as a function of post-treatment days.
To further evaluate the in vivo efficacy of the Katana-drug conjugate, SKOV3 cancer cells expressing luciferase were implanted in the mouse flank. […] Tumour imaging was performed on different days by injecting the luciferase substrate luciferin and by using the Xtreme imaging system from Carestream.
Luminescence was then quantified and plotted as a function of days after implantation (FIG. 23).
SKOV3 cancer cells (2.5×10^6 cells) expressing luciferase were implanted in the right flank of mice. Tumour growth was monitored using near infrared (NiR) imaging system from Carestream by injecting the luciferase substrate luciferin. […] Luminescence associated with tumour growth of SKOV3/Luc cancer cells was quantified as a function of post-treatment days with the instrument software.

[5] = system: MDA-MB-231 breast cancer cells; experiment: cells; conditions: Homo sapiens, MDA-MB-231
Method: Breast cancer cells (MDA-MB231) were incubated with increasing concentrations of KBC106 or curcumin. After 72 hrs, thymidine incorporation assay was performed to assess the anti-proliferative properties of both molecules. IC50 values were extracted from the anti-proliferative curves.
The phytochemical Curcumin, unconjugated and conjugated, was also tested on cancer cell proliferation (FIG. 28). Breast cancer cells (MDA-MB231) were incubated with increasing concentrations of KBC106 or curcumin. After 72 hrs, thymidine incorporation assay was performed to assess the anti-proliferative properties of both molecules. IC50 values were extracted from the anti-proliferative curves. […] Proliferation assay was also performed using different types of cancer cells (ovarian, breast, skin and colorectal cancer cells). IC50 values were calculated from the anti-proliferation curves.
as §3

[6] = Tissue distribution of radiolabeled compounds in mice; conditions: iv bolus, equivalent dose of Docetaxel (Docetaxel 2.2, KBA105 5 mg/kg)
Method: CD-1 mice were injected with the radiolabeled conjugate at 5 mg/kg via iv bolus injections (21A) or […] of radiolabeled Docetaxel (21B). At the indicated times (1 h, 6 h, 24 h) mice were sacrificed and perfused with saline for 8 min. Tissues were then collected and radioactivity was measured. Results are expressed in terms of ng/g of tissue.
At the indicated times (1, 6 and 24 hours), whole body perfusion was performed for 8 min with saline at a flow rate of 8 ml/min after […] hours iv bolus injections.
After radiolabeling free iodine was remove. Mice were injected with Docetaxel-[^125I]-Katana peptide conjugate at 5 mg/kg. Plasma was collected at the indicated times. After 1, 2 and 24 hours some mice were perfused with saline, sacrificed and tissues were collected. Radioactivity in the plasma and tissues were measured in a radioactivity counter and results were calculated and expressed in terms of […] for the plasma or ng/g of tissues.

[7] = system: ovarian (SKOV3 and ES-2) cancer cells; experiment: Cell migration assay by xCELLigence biosensor system, ovarian cancer cells; type: cell-based; conditions: 2 hours incubation, 2 μM
Method: 15A. Cells were incubated for 2 hrs with increasing concentration of Doxorubicin or conjugated Doxorubicin (KBB106) and cell migration was performed. 15B. […] 15C. Progranulin (PGR), a sortilin ligand, also reversed the effect of the Doxorubicin conjugate (KBB106) on ovarian cancer cell (ES-2) migration.
This second cellular assay was also used to screen the different Katana-drug conjugates (FIG. 15). […] However, as shown in FIGS. 15B and 15C, when the cancer cells were incubated with conjugated Doxorubicin (KBB106) in the presence of a sortilin ligand (Neurotensin, Katana peptide or progranulin), the migratory effect of the Doxorubicin conjugate was reversed.
Experiments were carried out using the Real-Time Cell Analyser (RTCA) Dual-Plate (DP) Instrument, the xCELLigence system (Roche Diagnostics, QC). This system was used according to the instructions of the supplier. Then, cells (25 000 cells/well) were seeded in serum-free medium onto a CIM-Plates 16 (Roche diagnostics). […] After 30 min of adhesion, cell migration was monitored every 5 min for 8 h. The impedance value was measured by the RTCA DP Instrument and was expressed as an arbitrary unit called the Cell Index which reflecting the amount of migration-active cells. […]

Row | SMILES | pIC50 [1] | pIC50 [2] | increase of accumulation in the presence of cyclosporin A (P-gp (MDR1)) [fold] | pIC50 (A-375 skin cancer cells) | tumor luminescence increase compared to initial tumor luminescence ([3]; D74 post-treatment, Docetaxel 15 mg/kg/week) [%] | plasma half-life reported in the literature [4] [h] | body weight loss (SKOV3 cancer cells) [%] | pIC50 [5] | Area under the curve (AUC1-24) ([6]; Brain) [ng·h/mL] | Area under the curve (AUC1-24) ([6]; Heart) [ng·h/mL] | Area under the curve (AUC1-24) ([6]; Kidney) [ng·h/mL] | Area under the curve (AUC1-24) ([6]; Liver) [ng·h/mL] | Area under the curve (AUC1-24) ([6]; Lung) [ng·h/mL] | Area under the curve (AUC1-24) ([6]; Mammary) [ng·h/mL] | Area under the curve (AUC1-24) ([6]; Ovary) [ng·h/mL] | Area under the curve (AUC1-24) ([6]; Spleen) [ng·h/mL] | effect on cell migration [7] | tumor luminescence decrease compared to initial tumor luminescence ([3]; D74 post-treatment, KBA106 50 mg/kg/week) [%] | residual tumor burden (remaining luminescence) ([3]; Day 74 post-treatment, KBA106 50 mg/kg/week)
1 | CC(=O)O[C@@]12CO[C@@H]1C[C@H](O)[C@@]1(C)C(=O)[C@H](O)C3=C(C)[C@@H](OC(=O)[C@H](O)[C@@H](NC(=O)OC(C)(C)C)c4ccccc4)C[C@@](O)([C@@H](OC(=O)c4ccccc4)[C@H]21)C3(C)C [Docetaxel, docetaxel, reference compound] | 9.16 | 8.89 | 2 | 9.04 | 100 | 1 | ~20 | 9.17 | 34 | 656 | 1072 | 652 | 614 | 823 | 1523 | 457 | – | – | –
2 | CCCC[C@H](NC(=O)[C@H](CC(N)=O)NC(=O)[C@H](CCCNC(=N)N)NC(=O)[C@@H](NC(=O)CNC(=O)[C@H](C)NC(=O)[C@H](CCCCNC(=O)CCC(=O)O[C@@H](C(=O)O[C@H]1C[C@@]2(O)[C@@H](OC(=O)c3ccccc3)[C@@H]3[C@]4(OC(C)=O)CO[C@@H]4C[C@H](O)[C@@]3(C)C(=O)[C@H](O)C(=C1C)C2(C)C)[C@@H](NC(=O)OC(C)(C)C)c1ccccc1)NC(=O)[C@H](C)NC(=O)[C@H](CCCNC(=N)N)NC(=O)[C@@H](NC(=O)CNC(C)=O)C(C)C)C(C)C)C(=O)N[C@@H](Cc1ccccc1)C(=O)N[C@@H](CCCCNC(=O)CCC(=O)O[C@@H](C(=O)O[C@H]1C[C@@]2(O)[C@@H](OC(=O)c3ccccc3)[C@@H]3[C@]4(OC(C)=O)CO[C@@H]4C[C@H](O)[C@@]3(C)C(=O)[C@H](O)C(=C1C)C2(C)C)[C@@H](NC(=O)OC(C)(C)C)c1ccccc1)C(=O)N[C@@H](CO)C(=O)N[C@@H](CCC(=O)O)C(=O)N[C@@H](CO)C(=O)N[C@@H](Cc1ccc(O)cc1)C(=O)O [KBA-106, Acetyl-GVRAK(docetaxel)AGVRN(Nle)FK(docetaxel)SESY] (Ac-GVRAK(X1)AGVRN[Nle]FK(X1)SESY-OH; C-terminus assumed) | – | – | – | – | – | – | – | – | – | – | – | – | – | – | – | – | almost completely abolished the cellular capacity of these cells to migrate | 100 | no luminescence was detectable
